Assay results: patent publication US7820716B2 (Mai De Ltd, priority 2007, dated 2010)

How the values were obtained:
norepinephrine uptake = conditions: background statement; cited from earlier work
serotonin uptake = conditions: background statement; cited from earlier work
[1] = Stability study of bulk material, stability-indicating HPLC; assay type: physicochemical
Description: Changes are monitored using a stability-indicating HPLC method. Results were calculated by normalized peak area (npa). Degradants are identified by comparison of their relative retention times against impurity standards.

Compound | norepinephrine uptake (norepinephrine uptake) | serotonin uptake (serotonin uptake) | polymorph and chemical stability demonstrated ([1]; elevated temperatures and humidity (40° C./75%)) [months] | polymorph stability and formation of known and unknown degradants ([1]; stored for over 3 to 6 months under normal conditions of temperature and humidity)
CN(C)CC(c1ccc(O)cc1)C1(O)CCCCC1 (stereo not shown) [O-desmethyl venlafaxine] | inhibit | inhibit | – | –
(1-[2-(dimethylamino)-1-(4-phenol)ethyl]-cyclohexanol succinate [Form V] | – | – | 2 | stable
